Consider one molecule from patent publication US12371748B2, “Genetic markers for predicting responsiveness to therapy with HDL-raising or HDL mimicking agent” (Hoffmann-La Roche Inc., priority 2014, dated 2025).

The nature of test [1]: dal-OUTCOMES: change in plasma lipids by rs1967309 genotype. Type of test: in vivo, human. The settings on record: for change in total cholesterol at 1 month: dalcetrapib arm. The protocol: All patients were following individualized programs to target LDL cholesterol levels of 100 mg per deciliter (2.6 mmol per liter) or lower by statin if tolerated and diet. No specific statin agent was specified, and patients were not excluded based on LDL cholesterol values. Patients with serum triglyceride levels of 400 mg per deciliter (4.5 mmol per liter) or higher were excluded. (Schwartz G G et al. N Engl J Med 2012; 367:2089-99) Eligible participants to the dal-Outcomes trial entered a single-blind placebo run-in period of approximately 4 to 6 weeks to allow for patients to stabilise and for completion of planned revascularisation procedures. At the end of the run-in period, eligible patients in stable condition were randomised in a 1:1 ratio to 600 mg of dalcetrapib or placebo on top of evidence-based medical care for acute coronary syndrome. Cardiovascular events were adjudicated by an independent clinical endpoint committee. For the pharmacogenomics study, 6338 patients were recruited from April 2008 through July 2010 at 461 sites in 14 countries and provided written informed consent to participate to the genetic study of the dal-OUTCOMES trial. DNA was extracted from whole blood. Following genomic data cleanup, samples from 5749 Caucasian patients were used for the discovery genome-wide association study (GWAS).
This effect was not observed in the placebo arm. […] During the dalcetrapib treatment period, GG carriers had overall slightly lower LDL-cholesterol levels (adjusted P=0.048; repeated measures analysis, FIG. 4).

For a further test, the target named is T1, CETP (Homo sapiens, UniProt P11597).
T1 construct: host or cells: humans (in vivo; endogenous plasma CETP)
T1 sequence (P11597 18-493): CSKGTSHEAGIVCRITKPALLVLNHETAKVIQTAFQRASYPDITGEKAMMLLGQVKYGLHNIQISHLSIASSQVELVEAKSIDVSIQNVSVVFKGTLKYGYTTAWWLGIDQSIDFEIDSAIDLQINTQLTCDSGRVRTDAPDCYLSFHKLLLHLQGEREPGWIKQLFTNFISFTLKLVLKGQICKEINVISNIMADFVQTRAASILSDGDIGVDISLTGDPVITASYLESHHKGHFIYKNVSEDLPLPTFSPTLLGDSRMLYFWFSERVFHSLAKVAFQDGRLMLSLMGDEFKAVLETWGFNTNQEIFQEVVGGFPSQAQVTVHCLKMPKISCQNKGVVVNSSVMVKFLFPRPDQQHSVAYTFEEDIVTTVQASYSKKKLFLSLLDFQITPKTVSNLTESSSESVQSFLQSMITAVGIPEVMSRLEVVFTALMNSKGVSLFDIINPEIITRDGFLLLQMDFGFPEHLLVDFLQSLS
The settings on record: humans; cited from earlier work.

The conditions of test [2]: humans; cited from earlier work.

SMILES strings stand for the structures.

Regarding `CCC(CC)CC1(C(=O)Nc2ccccc2SC(=O)C(C)C)CCCCC1` [dalcetrapib, thioisobutyric acid S-(2-{[1-(2-ethyl-butyl)-cyclohexanecarbonyl]-amino}-phenyl) ester], in test [1] (rs1967309 AA), the “change in total cholesterol at 1 month” value stood at 13.8 ± 24.0 mg/dL and the “change in LDL-cholesterol after 1 month of dalcetrapib treatment” value (“change in LDL-cholesterol after 1 month” for short) is “+0.6±21.0 mg/dl”. Further, in test [1] (rs1967309 AG), the “change in total cholesterol at 1 month” value was 12.9 ± 30.3 mg/dL and the “change in LDL-cholesterol after 1 month” value was -1.0 ± 20.0 mg/dL. In test [1] (rs1967309 GG), the “change in total cholesterol at 1 month” value amounted to 10.0 ± 23.3 mg/dL and the “change in LDL-cholesterol after 1 month” value was -2.0 ± 20.0 mg/dL. Moreover, the CETP activity result at CETP is given as “inhibitor of CETP activity”. In test [2], the LDL cholesterol entry is listed as “decrease LDL cholesterol” and the “plasma HDL cholesterol” value is given as “increase plasma HDL cholesterol”.
